Like-named read-outs stand apart in the source and are kept apart here.
Key:
[1] = system: primary AML patient samples; experiment: Cell viability GI50 against primary AML patient samples (CellTiter-Glo); assay type: cell-based
Protocol: Compounds were diluted in DMSO (<0.05% DMSO) and dispensed into a 384-well plate using the Echo 555 liquid handler (Labcyte). Following the addition of compounds, cells were pipetted into the 384-well plates at a concentration of between 2,000 and 8,000 cells per well in IMDM or RPMI media, as noted above, supplemented with 10% FBS and incubated at 37° C., 5% CO2 in a tissue culture incubator. Plates were incubated for 48 hours, and cell viability was measured using the CellTiter-Glo reagent (Promega). Percent viability was defined as relative luminescence units (RLU) of each well divided by the RLU of cells in DMSO control. Dose-response curves and GI50 values were determined using linear regression of double-log transformed data (GraphPad Prism version 6.0 h). Control bone marrow-derived CD34+ cells were purchased from STEMCELL Technologies.

[2] = system: MV-4-11 cell line derived xenograft; experiment: MV-4-11 cell line derived xenograft model; assay type: in vivo
[3] = system: E1A oncogene transformed cell lines; conditions: cited from earlier work
untransformed lines = conditions: cited from earlier work
[4] = system: NCI-60 cell lines that do not exhibit the Warburg effect; conditions: cited from earlier work

| Structure (SMILES) | GI50 ([1]; patient sample 17-03-006, data collected Jul. 8, 2021, read-out: GI50 from double log regression (converted)) [nM] | GI50 ([1]; patient sample 17-03-006, data collected Jul. 8, 2021, read-out: viability GI50 from Prism) [nM] | GI50 ([1]; patient sample 17-03-006, data collected Mar. 8, 2022, read-out: GI50 from double log regression (converted)) [nM] | GI50 ([1]; patient sample 17-03-006, data collected Mar. 8, 2022, read-out: viability GI50 from Prism) [nM] | GI50 ([1]; patient sample 18-12-001, data collected Jul. 8, 2021, read-out: GI50 from double log regression (converted)) [nM] | GI50 ([1]; patient sample 18-12-001, data collected Jul. 8, 2021, read-out: viability GI50 from Prism) [nM] | GI50 ([1]; patient sample 18-12-001, data collected Mar. 8, 2022, read-out: GI50 from double log regression (converted)) [nM] | GI50 ([1]; patient sample 29-09-002, data collected Jul. 8, 2021, read-out: GI50 from double log regression (converted)) [nM] | GI50 ([1]; patient sample 29-09-002, data collected Jul. 8, 2021, read-out: viability GI50 from Prism) [nM] | efficacy in xenograft model [2] | potency against transformed cells ([3]; transformed cells) [nM] | fold more potent against transformed cells than untransformed lines ([3]; transformed vs untransformed) | potency against untransformed lines (untransformed lines) [nM] | activity in NCI-60 cell lines relying on oxidative phosphorylation [4] |
| --- | --- | --- | --- | --- | --- | --- | --- | --- | --- | --- | --- | --- | --- | --- |
| COCCC[C@H]1O[C@@](O)([C@H](C)[C@@H]2C[C@H](OC)[C@H](O)\C=C(C)/C=C(C)\C=C(\C)[C@@H](O[C@@H]3O[C@@H](C)[C@H](O)[C@@H](O)[C@@H]3O)[C@H](C)\C=C(C)/C=C(OC)\C=C(\C)C(=O)O2)[C@H](OC)[C@@H](O)[C@]1(C)O[C@H]1C[C@H](O)[C@H](O[C@H]2C[C@@](C)(O)[C@H](O)[C@@H](C)O2)[C@@H](C)O1 [ammocidin A] | 32.1 | 10.3 | 30.8 | 9.5 | 31.2 | 30.2 | 75.4 | 21.7 | 15.8 | comparable efficacy | – | – | – | – |
| COC[C@@H](C[C@H]1O[C@@](O)([C@H](O)[C@@H]2C[C@H](OC)[C@@H](O)CC/C=C(C)/C=C/[C@@H](O[C@@H]3O[C@@H](C)[C@H](OC)[C@@H](O)[C@@H]3O)[C@H](C)/C=C(C)/C=C(C)/C=C(\C)C(=O)O2)[C@H](C)[C@@H](O)[C@H]1C)OC1C[C@](C)(O)[C@@H](O[C@H]2C[C@@H](OC)[C@H](O)[C@@H](C)O2)[C@H](C)O1 (some centres unmarked) [apoptolidin, Apoptolidin A] | – | – | – | – | – | – | – | – | – | – | 10 | 1,000 fold | 10000 | low nanomolar |

— US20240254157A1, “MACROLIDE COMPOUNDS” (VANDERBILT UNIVERSITY, priority 2021, published 2024)
